Results on seven compounds are retold here after patent US20230357179A1, “RAF KINASE INHIBITORS AND METHODS OF USE THEREOF” (Deciphera Pharmaceuticals, LLC, priority 2021, published 2023).

In one assay the test system is Miapaca-2 cells. The assay can be described thus: MiaPaca-2 combination cell proliferation assay (1) with cobimetinib, 96-well. It counts as cell-based. As to conditions: inhibition of cell proliferation, read-out: MiaPaca-2 Combo (1) IC50. How it is done:
MiaPaca-2 Combination Cell proliferation Assay (1)
Miapaca-2 cells (catalog #CRL-1420) are obtained from the American Type Culture Collect (ATCC, Manassas, VA). Briefly, cells were grown in DMEM supplemented with 10% characterized fetal bovine serum (Invitrogen, Carlsbad, CA), 2.5% New Zealand sourced horse serum and 1% Penicillin/Streptomycin/L-Glutamine at 37° C., 5% CO2, and 95% humidity. Cells are expanded until reaching 70-95% confluency at which point they are subcultured or harvested for assay use. A serial dilution of test compound was dispensed into multiple 96-well black clear bottom plates in triplicate. A serial dilution of complete growth medium containing cobimetinib was prepared at twice the final concentration and 100 μL was dispensed across the test compound titration in triplicate. Three thousand cells are added per well in 100 μL complete growth medium in each 96-well plate. Plates are incubated for 67-72 hours at 37° C., 5% CO2, and 95% humidity. At the end of the incubation, 40 μL of a 440 μM solution of resazurin (Sigma, St. Louis, MO) in PBS is added to each well of the plate and plates are incubated for an additional 5-7 hours at 37° C., 5% CO2, and 95% humidity. Plates are read on a Synergy2 or equivalent reader (Biotek, Winooski VT) using an excitation of 540 nm and an emission of 600 nm. Drug synergy was assessed via BLISS analysis in the Combenefit software (Cancer Research UK Cambridge Institute, Cambridge, UK). Data is analyzed using Prism software (GraphPad, San Diego, CA) to calculate IC50 values. Shifts in test compound IC50 values are reported from top-constrained combination therapy curves.
Usually IC50 stands for the concentration needed to halve the response being measured. As to `Cc1cc(F)c(NC(=O)NCCC(C)(C)C)cc1-c1cc(OCCO)nc(C2=CCOCC2)c1` [Example 7], the IC50 was at most 100 nM.
The same measure, in the same setting: under `Cc1ccc(NC(=O)Nc2cccc(C(F)(F)F)c2)cc1-c1cc(OCCO)nc(N2CCOCC2)c1` [Example 3, 1-(3-(2-(2-hydroxyethoxy)-6-morpholinopyridin-4-yl)-4-methylphenyl)-3-(3-(trifluoromethyl)phenyl)urea] stands at most 100 nM; under `Cc1ncc(NC(=O)NCCC2(C)CC2)cc1-c1cc(OCCO)nc(-c2ccnc(NC(=O)C3CC3)c2)c1` [Example 113], at most 100 nM.

The next assay relates to WM3629 cells. Put plainly: WM3629 cell proliferation assay (1), resazurin, 96-well. It counts as cell-based. Particulars: inhibition of cell proliferation. Here is the method:
WM3629 Cell Proliferation Assay (1)
WM3629 cells (#WM3629-01-0001) are obtained from Rockland Immunochemicals Inc (Gilbertsville, PA). Briefly, cells were grown in MCDB 153 medium (Sigma, #M7403, St. Louis, MO) supplemented with 20% Leibovitz's L-15 (ThermoFisher #11415-064, Waltham, MA), 2% heat inactivated fetal bovine serum (ThermoFisher, #A3840001, Waltham, MA), 5 μg/mL Insulin (Bovine Pancreas) (Sigma, #I0516, St. Louis, MO), 1.68 mM Calcium Chloride (Sigma, #C-34006, St. Louis, MO) and 1% Penicillin/Streptomycin/L-Glutamine (ThermoFisher #10378016, Waltham, MA) at 37° C., 5% CO2, and 95% humidity. Cells are expanded until reaching 70-95% confluency at which point they are subcultured or harvested for assay use. A serial dilution of test compound is dispensed into a 96-well black clear bottom plate in triplicate. Four thousand five hundred cells are added per well in 200 μL complete growth medium in the 96-well plate. Plates are incubated for 67-72 hours at 37° C., 5% CO2, and 95% humidity. At the end of the incubation, 40 μL of a 440 μM solution of resazurin (Sigma, #199303, St. Louis, MO) in PBS is added to each well of the plate and plates are incubated for an additional 6-7 hours at 37° C., 5% CO2, and 95% humidity. Plates are read on a Synergy2 or equivalent reader (Biotek, Winooski VT) using an excitation of 540 nm and an emission of 600 nm. Data is analyzed using Prism software (GraphPad, San Diego, CA) to calculate IC50 values.
A general note: Resazurin is reduced to fluorescent resorufin, in cell work by metabolically active cells.
For `COC(=O)Nc1cc(-c2cc(-c3cc(NC(=O)NC4CC(C)(C)C4)cnc3C)cc(OCCO)n2)ccn1` [Example 156], the IC50 is at most 100 nM.
The same measure, in the same setting: under `CNC(=O)c1cc(-c2cnnc(-c3cc(NC(=O)NCCC(C)(C)C)c(F)cc3C)c2)ccn1` [Example 119] stands 100 to 500 nM.
In the case of `Cc1ncc(NC(=O)NCCC2(C)CC2)cc1-c1ccnc(-c2ccnc(NC(=O)C3CC3)c2)n1` [Example 107], the IC50 is at most 100 nM.
For the compound `COC(=O)Nc1cc(-c2cc(-c3cc(NC(=O)NCCC(C)C)c(F)cc3C)cc(OCCO)n2)ccn1` [Example 115], the IC50 is at most 100 nM.
